Experimental data reported in paper PMC11574862 (The Journal of General Physiology, 2024).
Several values for one entry are separate records, joined by “and”; a condition that tells them apart may be missing. Identical values can stand only once.

Legend:
Assay type in all cases: binding
VC0430 (VcGluP) wildtype [1] = target: T1, VC0430 (VcGluP) wildtype (Vibrio cholerae, UniProt Q9KUT5)
VC0430 (VcGluP) wildtype [2] = target: T1, VC0430 (VcGluP) wildtype; assay: biochemical
VcGluP Q93A = VcGluP Q93A (Vibrio cholerae, UniProt Q9KUT5, Q93A)
VcGluP Y200A = VcGluP Y200A (Vibrio cholerae, UniProt Q9KUT5, Y200A)
VcGluP S75A = VcGluP S75A (Vibrio cholerae, UniProt Q9KUT5, S75A)
VcGluP Y45A = VcGluP Y45A (Vibrio cholerae, UniProt Q9KUT5, Y45A)
VcGluP M201A = VcGluP M201A (Vibrio cholerae, UniProt Q9KUT5, M201A)
VcGluP E125A = VcGluP E125A (Vibrio cholerae, UniProt Q9KUT5, E125A)

## NC(=O)CCC(N)C(=O)O (stereo in doubt) [D-glutamine]
VC0430 (VcGluP) wildtype [1]
  Average Tm: 46.40 °C and 47.06 °C and 48.72 °C
  Tm Replicate 1: 46.73 °C and 46.72 °C and 48.72 °C
  Tm Replicate 2: 45.74 °C and 47.72 °C and 48.72 °C
  Tm Replicate 3: 46.73 °C (2×) and 48.72 °C
VC0430 (VcGluP) wildtype [2]
  fluorescence enhancement in titration (Kd could not be determined): lack of fluorescence enhancement

## N[C@H](CCC(=O)O)C(=O)O [D-glutamate]
VC0430 (VcGluP) wildtype [1]
  Average Tm: 58.65 °C
  Tm Replicate 1: 58.65 °C
  Tm Replicate 2: 58.65 °C
  Tm Replicate 3: 58.65 °C
VC0430 (VcGluP) wildtype [2]
  Kd: 24.5 ± 10.6 µM

## N[C@@H](CC(=O)O)C(=O)O [L-aspartate]
VC0430 (VcGluP) wildtype [1]
  Average Tm: 47.06 °C
  Tm Replicate 1: 47.72 °C
  Tm Replicate 2: 45.74 °C
  Tm Replicate 3: 47.73 °C
  change in VC0430's Tm (Tm increase): no change

## N[C@@H](CCC(=O)O)C(=O)O [L-glutamate]
VcGluP Q93A
  ligand concentration needed to saturate fluorescence enhancement: a higher concentration was required
VcGluP Y200A
  ligand concentration giving maximum fluorescence enhancement: ≤ 50 µM
VcGluP S75A
  ligand concentration giving maximum fluorescence enhancement: ≤ 50 µM
VcGluP Y45A
  ligand concentration giving maximum fluorescence enhancement: ≤ 50 µM
VcGluP M201A
  ligand concentration giving maximum fluorescence enhancement: ≤ 50 µM
VC0430 (VcGluP) wildtype [2]
  Kd: 0.065 ± 0.031 µM
VcGluP E125A
  ligand concentration giving maximum fluorescence enhancement: ≤ 50 µM

## NC(=O)CC[C@H](N)C(=O)O [L-glutamine]
VC0430 (VcGluP) wildtype [1]
  Tm Replicate 2: 50.70 °C and 53.68 °C and 55.67 °C and 50.71 °C
VC0430 (VcGluP) wildtype [2]
  Kd: 11 ± 2 µM

## NCCCC[C@H](N)C(=O)O [L-lysine]
VC0430 (VcGluP) wildtype [1]
  Average Tm: 44.41 °C
  Tm Replicate 1: 43.75 °C
  Tm Replicate 2: 44.74 °C
  Tm Replicate 3: 44.74 °C
  change in VC0430's Tm (Tm increase): no change

## O=C(O)[C@@H]1CCC(O)=N1 [L-pyroglutamate]
VC0430 (VcGluP) wildtype [1]
  effect on VcGluP's stability (DSF): enhanced VcGluP’s stability in a dose-dependent manner
VC0430 (VcGluP) wildtype [2]
  Kd: 50 ± 16 µM

## O=C(O)CCCCC(=O)O [adipate]
VC0430 (VcGluP) wildtype [1]
  Average Tm: 44.74 °C
  Tm Replicate 1: 43.75 °C
  Tm Replicate 2: 45.74 °C
  Tm Replicate 3: 44.74 °C
  change in VC0430's Tm (Tm increase): no change

## O=C(O)CCC(=O)C(=O)O [α-ketoglutarate]
VC0430 (VcGluP) wildtype [1]
  Average Tm: 47.39 °C
  Tm Replicate 1: 50.71 °C
  Tm Replicate 2: 45.74 °C
  Tm Replicate 3: 45.74 °C
  change in VC0430's Tm (Tm increase): no change
